Read-outs that look alike come from different tables or passages of the source.

Data set [1] deals with T1, Phospho-EGFR (Tyr1068) in H1975 cells (Homo sapiens, UniProt P00533, L858R/T790M).
T1 construct: host or cells: H1975
Put plainly: HTRF pEGFR/total EGFR in H1975 cells. Format: cell-based. The conditions noted are these: ratio pEGFR/total EGFR, compound 3 hours. In short, it runs like this:
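H1975 cells (EGFR L858R/T790M) treated 3 h with compound in 0.1% DMSO, in duplicate, 24 h after plating. Lysates assayed by HTRF for pEGFR (Tyr1068) and total EGFR at 665/620 nm; values are pEGFR/total EGFR ratio as percent of 0 μM control.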
In general terms: TR-FRET usually uses a lanthanide donor and a delayed reading to cut background.

For data set [2], the target named is CtermHisTag-mEGFR Wild type (Homo sapiens, UniProt P00533).
The target in data set [3] is T2, Phospho-EGFR (Tyr1068) in H1975 C797S cells (CRISPR-edited EGFR C797S) (Homo sapiens, UniProt P00533, C797S/L858R/T790M).
T2 construct: host or cells: H1975 C797S (CRISPR-edited)
The data set is described as follows: HTRF pEGFR/total EGFR in H1975 C797S cells. Type of data set: cell-based. The note with it: ratio pEGFR/total EGFR, compound 3 hours. In short, it runs like this: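 Adhered H1975 C797S cells got compound for 3 h in duplicate at 0.1% DMSO final, then were lysed 30 min at room temperature. HTRF kits quantified phospho-EGFR (Tyr1068) and total EGFR (665/620 nm); results are pEGFR/total EGFR ratio as percent of 0 μM control.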

T1 sequence (P00533 25-1210 T790M/L858R): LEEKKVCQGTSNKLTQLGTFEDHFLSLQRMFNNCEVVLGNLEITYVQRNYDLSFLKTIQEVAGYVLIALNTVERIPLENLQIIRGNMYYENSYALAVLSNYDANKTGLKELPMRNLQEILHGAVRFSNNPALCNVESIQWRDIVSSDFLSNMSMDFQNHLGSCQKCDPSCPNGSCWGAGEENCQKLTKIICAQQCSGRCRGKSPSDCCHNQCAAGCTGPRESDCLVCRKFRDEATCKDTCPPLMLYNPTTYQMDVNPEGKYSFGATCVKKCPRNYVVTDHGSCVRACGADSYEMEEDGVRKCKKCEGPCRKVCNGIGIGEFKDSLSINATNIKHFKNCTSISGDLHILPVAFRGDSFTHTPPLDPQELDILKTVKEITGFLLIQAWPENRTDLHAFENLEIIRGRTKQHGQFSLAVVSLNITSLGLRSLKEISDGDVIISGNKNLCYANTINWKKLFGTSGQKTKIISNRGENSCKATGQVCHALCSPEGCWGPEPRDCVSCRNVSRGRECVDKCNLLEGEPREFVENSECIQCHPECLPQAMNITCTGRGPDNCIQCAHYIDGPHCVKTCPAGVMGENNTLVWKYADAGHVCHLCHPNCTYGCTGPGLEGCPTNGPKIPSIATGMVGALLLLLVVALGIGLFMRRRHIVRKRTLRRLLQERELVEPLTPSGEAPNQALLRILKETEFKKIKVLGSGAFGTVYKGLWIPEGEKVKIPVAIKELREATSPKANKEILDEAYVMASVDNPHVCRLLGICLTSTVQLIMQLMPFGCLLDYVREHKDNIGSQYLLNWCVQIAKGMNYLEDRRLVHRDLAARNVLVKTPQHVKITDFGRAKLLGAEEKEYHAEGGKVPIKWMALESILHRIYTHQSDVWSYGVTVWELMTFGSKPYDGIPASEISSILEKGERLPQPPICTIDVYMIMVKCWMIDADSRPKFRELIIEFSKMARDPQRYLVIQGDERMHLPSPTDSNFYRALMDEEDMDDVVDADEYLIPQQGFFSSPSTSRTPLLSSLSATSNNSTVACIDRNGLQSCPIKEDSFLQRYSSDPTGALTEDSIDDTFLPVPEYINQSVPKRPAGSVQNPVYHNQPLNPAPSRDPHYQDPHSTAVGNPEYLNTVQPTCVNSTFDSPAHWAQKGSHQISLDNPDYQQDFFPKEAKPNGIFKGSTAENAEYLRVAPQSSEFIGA
Sequence of CtermHisTag-mEGFR Wild type (P00533 whole entry): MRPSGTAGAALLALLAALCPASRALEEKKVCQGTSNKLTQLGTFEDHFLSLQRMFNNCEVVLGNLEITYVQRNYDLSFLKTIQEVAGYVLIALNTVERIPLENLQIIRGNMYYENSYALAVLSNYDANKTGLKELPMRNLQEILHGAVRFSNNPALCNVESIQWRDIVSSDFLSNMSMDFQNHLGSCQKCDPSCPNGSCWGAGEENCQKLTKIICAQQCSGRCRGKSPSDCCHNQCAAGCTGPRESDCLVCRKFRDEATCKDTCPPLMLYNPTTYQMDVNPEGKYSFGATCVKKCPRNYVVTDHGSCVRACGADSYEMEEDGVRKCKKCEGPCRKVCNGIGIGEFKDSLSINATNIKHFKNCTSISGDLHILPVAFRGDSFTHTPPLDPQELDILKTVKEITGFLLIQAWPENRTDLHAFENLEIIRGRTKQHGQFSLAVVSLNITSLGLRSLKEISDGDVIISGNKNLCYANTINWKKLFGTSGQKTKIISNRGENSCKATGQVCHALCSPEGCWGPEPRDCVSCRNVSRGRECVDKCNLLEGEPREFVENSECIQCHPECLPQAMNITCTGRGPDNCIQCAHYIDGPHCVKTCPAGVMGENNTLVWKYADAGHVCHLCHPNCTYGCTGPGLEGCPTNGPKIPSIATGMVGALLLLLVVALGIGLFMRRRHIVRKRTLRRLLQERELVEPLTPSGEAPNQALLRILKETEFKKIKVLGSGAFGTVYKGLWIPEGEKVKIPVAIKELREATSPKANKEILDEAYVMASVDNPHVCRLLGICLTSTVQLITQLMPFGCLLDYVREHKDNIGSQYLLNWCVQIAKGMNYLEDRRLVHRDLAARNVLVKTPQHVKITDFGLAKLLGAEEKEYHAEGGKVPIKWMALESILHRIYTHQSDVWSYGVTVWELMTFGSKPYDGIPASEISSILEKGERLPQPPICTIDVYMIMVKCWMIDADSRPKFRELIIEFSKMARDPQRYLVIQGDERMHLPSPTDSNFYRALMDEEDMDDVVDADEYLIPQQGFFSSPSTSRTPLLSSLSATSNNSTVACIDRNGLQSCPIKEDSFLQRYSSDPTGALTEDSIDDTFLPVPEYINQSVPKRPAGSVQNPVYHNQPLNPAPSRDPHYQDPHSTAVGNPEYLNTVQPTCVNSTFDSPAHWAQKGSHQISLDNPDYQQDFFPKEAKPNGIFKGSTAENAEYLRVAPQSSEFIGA
T2 sequence (P00533 25-1210 T790M/C797S/L858R): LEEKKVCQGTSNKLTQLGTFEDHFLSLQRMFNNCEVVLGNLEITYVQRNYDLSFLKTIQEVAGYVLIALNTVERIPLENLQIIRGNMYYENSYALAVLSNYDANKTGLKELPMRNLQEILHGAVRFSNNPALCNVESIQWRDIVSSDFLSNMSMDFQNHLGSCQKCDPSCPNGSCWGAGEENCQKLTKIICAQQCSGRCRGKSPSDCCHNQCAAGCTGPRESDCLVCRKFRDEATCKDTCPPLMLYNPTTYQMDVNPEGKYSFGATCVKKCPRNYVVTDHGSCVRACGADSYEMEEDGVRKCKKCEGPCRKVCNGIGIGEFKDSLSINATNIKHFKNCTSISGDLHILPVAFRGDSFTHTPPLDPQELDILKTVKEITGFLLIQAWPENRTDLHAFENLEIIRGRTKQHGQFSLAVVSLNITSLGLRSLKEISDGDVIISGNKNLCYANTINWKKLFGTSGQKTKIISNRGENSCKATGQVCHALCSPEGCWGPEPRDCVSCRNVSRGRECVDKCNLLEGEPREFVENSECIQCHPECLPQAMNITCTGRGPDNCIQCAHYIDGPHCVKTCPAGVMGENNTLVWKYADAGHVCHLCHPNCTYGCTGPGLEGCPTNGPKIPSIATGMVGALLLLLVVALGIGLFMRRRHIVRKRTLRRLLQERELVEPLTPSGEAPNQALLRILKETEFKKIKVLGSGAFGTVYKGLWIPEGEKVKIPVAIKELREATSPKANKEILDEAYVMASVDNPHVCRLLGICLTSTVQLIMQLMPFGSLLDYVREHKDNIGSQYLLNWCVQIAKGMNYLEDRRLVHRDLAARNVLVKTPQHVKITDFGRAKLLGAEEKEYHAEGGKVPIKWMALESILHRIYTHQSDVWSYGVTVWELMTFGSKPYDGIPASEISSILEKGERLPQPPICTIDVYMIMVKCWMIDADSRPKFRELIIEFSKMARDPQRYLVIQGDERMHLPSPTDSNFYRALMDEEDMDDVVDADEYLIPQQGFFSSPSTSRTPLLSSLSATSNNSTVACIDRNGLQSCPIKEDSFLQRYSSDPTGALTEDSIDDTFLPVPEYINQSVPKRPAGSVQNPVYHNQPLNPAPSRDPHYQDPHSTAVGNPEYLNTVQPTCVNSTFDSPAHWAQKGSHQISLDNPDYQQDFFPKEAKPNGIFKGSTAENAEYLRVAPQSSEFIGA

As usually defined, the IC50 is the concentration at which inhibition is half-maximal. Take `C=Cc1c(-c2ccccc2Cl)c(=O)n(C)c2nc(Nc3ccc(N4CCN(C)CC4)cc3OC)ncc12` [Example 171, 6-(2-chlorophenyl)-5-ethenyl-2-{[2-methoxy-4-(4-methylpiperazin-1-yl)phenyl]amino}-8-methylpyrido[2,3-d]pyrimidin-7-one]: the IC50 in data set [1] was above 3 µM; in data set [2] it was above 10 µM.

Regarding `C#Cc1cc(=O)n(C2CCCC2)c2nc(Nc3cccc(N(C)[C@H]4C[C@@H](CS(C)(=O)=O)C4)c3)ncc12` [Example 203], the values for the IC50 in data set [1], in data set [3] and in data set [2] were above 3 µM, above 3 µM and below 1 µM, respectively.

Compound `CC1CCCCOc2cc(ccc2N2CCN(C)CC2)Nc2ncc3c(C#C[Si](C(C)C)(C(C)C)C(C)C)cc(=O)n1c3n2` (centres unmarked) showed a ring closure, isolated yield (from CC(O)CCCCOc1cc(Nc2ncc3c(C#C[Si](C(C)C)(C(C)C)C(C)C)cc(=O)[nH]c3n2)ccc1N1CCN(C)CC1, other bond, 14-membered ring, PPh3/DIAD, THF, 24.0 mM) of 19%.

`CC(C)[Si](C#Cc1cc(=O)n2c3nc(ncc13)Nc1ccc(N3CCN(C)CC3)c(c1)CN(C)CCC2)(C(C)C)C(C)C` showed a ring closure, isolated yield (from CC(C)[Si](C#Cc1cc(=O)[nH]c2nc(Nc3ccc(N4CCN(C)CC4)c(CN(C)CCCO)c3)ncc12)(C(C)C)C(C)C, other bond, 13-membered ring, PPh3/DIAD, THF, 24.4 mM) of 50%.

“1^6-methyl-3^4-(4-methylpiperazin-1-yl)-1^5-((triisopropylsilyl)ethynyl)-1^7,1^8-dihydro-4-oxa-2-aza-1(2,8)-pyrido[2,3-d]pyrimidina-3(1,3)-benzenacyclooctaphan-1^7-one” gave a ring closure, isolated yield (other bond, 13-membered ring, PPh3/DIAD, THF, 107.0 mM) of 56%.

`CC(C)[Si](C#Cc1cc(=O)n2c3nc(ncc13)Nc1ccc(N3CCN(C)CC3)c(c1)OCCC[C@H]2C)(C(C)C)C(C)C` showed a ring closure, isolated yield (from CC(C)[Si](C#Cc1cc(=O)[nH]c2nc(Nc3ccc(N4CCN(C)CC4)c(OCCC[C@H](C)O)c3)ncc12)(C(C)C)C(C)C, other bond, 13-membered ring, PPh3/DIAD, THF, 24.2 mM) of 18%.

Compound `COCCN1CCN(c2ccc3cc2NC(=O)CCCn2c(=O)cc(C#C[Si](C(C)C)(C(C)C)C(C)C)c4cnc(nc42)N3)CC1` returned a ring closure, isolated yield (from COCCN1CCN(c2ccc(Nc3ncc4c(C#C[Si](C(C)C)(C(C)C)C(C)C)cc(=O)[nH]c4n3)cc2NC(=O)CCCO)CC1, other bond, 13-membered ring, PPh3/DEAD, THF, 25.7 mM) of 42%.

The compound “3^4-(4-Methylpiperazin-1-yl)-1^5-[2-(triisopropylsilyl)ethynyl]-1^7,1^8-dihydro-2,4-diaza-1(2,8)-pyrido[2,3-d]pyrimidine-3(1,3)-benzenacyclooctaphane-1^7,5-dione” showed a ring closure, isolated yield (other bond, 13-membered ring, PPh3/DEAD, THF, 162.0 mM) of 62%.

Where the note is “from CC(C)[Si](C#Cc1cc(=O)[nH]c2nc(Nc3ccc(N4CCN(C)CC4)c(OC/C=C\CO)c3)ncc12)(C(C)C)C(C)C, other bond, 13-membered ring, PPh3/DIAD, THF, 24.0 mM”, `CC(C)[Si](C#Cc1cc(=O)n2c3nc(ncc13)Nc1ccc(N3CCN(C)CC3)c(c1)OCC=CC2)(C(C)C)C(C)C` came in with a ring closure, isolated yield of 55%.

As for “3^4-(4-methylpiperazin-1-yl)-1^5-((triisopropylsilyl)ethynyl)-1^7,1^8-dihydro-2,5-diaza-1(2,8)-pyrido[2,3-d]pyrimidina-3(1,3)-benzenacyclooctaphane-1^7,4-dione”, under “other bond, 13-membered ring, PPh3/DIAD, THF, 43.7 mM”, the ring closure, isolated yield came out at 20%.

For the setting “other bond, 14-membered ring, PPh3/DIAD, THF, 93.0 mM”, “(5^1S,5^3R)-1^4-(4-Methylpiperazin-1-yl)-3^5-((triisopropylsilyl)ethynyl)-3^7,3^8-dihydro-7-oxa-2-aza-3(2,8)-pyrido[2,3-d]pyrimidina-1(1,3)-benzena-5(1,3)-cyclopentanacycloheptaphan-3^7-one” yielded a ring closure, isolated yield of 17%.

With “3^4-(4-methylpiperazin-1-yl)-1^5-((triisopropylsilyl)ethynyl)-1^7,1^8-dihydro-6-oxa-2-aza-1(2, 8)-pyrido[2,3-d]pyrimidina-3(1,3)-benzenacyclooctaphan-1^7-one”, the ring closure, isolated yield (other bond, 13-membered ring, PPh3/DEAD, THF, 82.8 mM) amounted to 77%.

On to “3^4-(4-Methylpiperazin-1-yl)-1^5-((triisopropylsilyl)ethynyl)-1^7,1^8-dihydro-2,6-diaza-1(2,8)-pyrido[2,3-d]pyrimidina-3(1,3)-benzenacyclooctaphane-1^7,7-dione”, for which, under “other bond, 13-membered ring, PPh3/DEAD, DCM, 130.0 mM”, the ring closure, isolated yield came to 38%.

In the case of “5-Methyl-3^4-(4-methylpiperazin-1-yl)-1^5-((triisopropylsilyl)ethynyl)-1^7,1^8-dihydro-2,5-diaza-1(2,8)-pyrido[2,3-d]pyrimidina-3(1,3)-benzenacyclooctaphane-1^7,6-dione”, for the setting “other bond, 13-membered ring, PPh3/DEAD, THF, 158.0 mM”, the ring closure, isolated yield came out at 75%.

The compound `CC(C)[Si](C#Cc1cc(=O)n2c3nc(ncc13)Nc1ccc(N3CCN(C)CC3)c(c1)S(=O)(=O)NCCC2)(C(C)C)C(C)C` gave a ring closure, isolated yield (from CC(C)[Si](C#Cc1cc(=O)[nH]c2nc(Nc3ccc(N4CCN(C)CC4)c(S(=O)(=O)NCCCO)c3)ncc12)(C(C)C)C(C)C, other bond, 13-membered ring, PPh3/DIAD, THF, 24.3 mM) of 15%.

As for `CC(C)[Si](C#Cc1cc(=O)n2c3nc(ncc13)Nc1ccc(N3CCN(C)CC3)c(c1)NCCCC2)(C(C)C)C(C)C`, the ring closure, isolated yield (from CC(C)[Si](C#Cc1cc(=O)[nH]c2nc(Nc3ccc(N4CCN(C)CC4)c(NCCCCO)c3)ncc12)(C(C)C)C(C)C, other bond, 13-membered ring, PPh3/DIAD, THF, 24.0 mM) was found to be 38%.

Compound `CC(C)[Si](C#Cc1cc(=O)n2c3nc(ncc13)Nc1ccc(N3CCN(C)CC3)c(c1)OCCCC2)(C(C)C)C(C)C` registered a ring closure, isolated yield (from CC(C)[Si](C#Cc1cc(=O)[nH]c2nc(Nc3ccc(N4CCN(C)CC4)c(OCCCCO)c3)ncc12)(C(C)C)C(C)C, other bond, 13-membered ring, PPh3/DIAD, THF, 25.0 mM) of 42%.

In turn, `CC(C)[Si](C#Cc1cc(=O)n2c3nc(ncc13)Nc1ccc(N3CCN(C)CC3)c(c1)CC(=O)NCC2)(C(C)C)C(C)C` came in with a ring closure, isolated yield (from CC(C)[Si](C#Cc1cc(=O)[nH]c2nc(Nc3ccc(N4CCN(C)CC4)c(CC(=O)NCCO)c3)ncc12)(C(C)C)C(C)C, other bond, 13-membered ring, PPh3/DIAD, THF, 24.0 mM) of 43%.

Under “from CC(C)[Si](C#Cc1cc(=O)[nH]c2nc(Nc3cccc(COC/C=C\CO)c3)ncc12)(C(C)C)C(C)C, other bond, 14-membered ring, PPh3/DIAD, THF, 24.0 mM”, `CC(C)[Si](C#Cc1cc(=O)n2c3nc(ncc13)Nc1cccc(c1)COCC=CC2)(C(C)C)C(C)C` showed a ring closure, isolated yield of 56%.

On to “3^4-(4-Methylpiperazin-1-yl)-1^5-((triisopropylsilyl)ethynyl)-1^7,1^8-dihydro-4-oxa-2-aza-1(2, 8)-pyrido[2,3-d]pyrimidina-3(1,3)-benzenacyclodecaphan-1^7-one”, for which the ring closure, isolated yield (other bond, 15-membered ring, PPh3/DEAD, THF, 158.0 mM) is 41%.

Where the note is “from Cc1c(C#C[Si](C(C)C)(C(C)C)C(C)C)c2cnc(Nc3ccc(N4CCN(C)CC4)c(OCCCCCO)c3)nc2[nH]c1=O, other bond, 14-membered ring, PPh3/DEAD, THF, 94.8 mM”, `Cc1c(C#C[Si](C(C)C)(C(C)C)C(C)C)c2cnc3nc2n(c1=O)CCCCCOc1cc(ccc1N1CCN(C)CC1)N3` came in with a ring closure, isolated yield of 51%.

`CC(C)[Si](C#Cc1cc(=O)n2c3nc(ncc13)Nc1ccc(N3CCN(C)CC3)c(c1)COCCC2)(C(C)C)C(C)C` showed a ring closure, isolated yield (from CC(C)[Si](C#Cc1cc(=O)[nH]c2nc(Nc3ccc(N4CCN(C)CC4)c(COCCCO)c3)ncc12)(C(C)C)C(C)C, other bond, 13-membered ring, PPh3/DIAD, THF, 24.0 mM) of 29%.

For the setting “from CC(C)[Si](C#Cc1cc(=O)[nH]c2nc(Nc3ccc(N4CCN(C)CC4)c(COCCCCO)c3)ncc12)(C(C)C)C(C)C, other bond, 14-membered ring, PPh3/DEAD, THF, 129.0 mM”, `CC(C)[Si](C#Cc1cc(=O)n2c3nc(ncc13)Nc1ccc(N3CCN(C)CC3)c(c1)COCCCC2)(C(C)C)C(C)C` came in with a ring closure, isolated yield of 28%.

Take `CC(C)[Si](C#Cc1cc(=O)n2c3nc(ncc13)Nc1cccc(c1)OCC=CC2)(C(C)C)C(C)C`: the ring closure, isolated yield is, setting by setting: (from CC(C)[Si](C#Cc1cc(=O)n(C/C=C\CO)c2nc(Nc3cccc(O)c3)ncc12)(C(C)C)C(C)C, ether bond, 13-membered ring, PPh3/DIAD, THF, 25.0 mM) 33%; (from CC(C)[Si](C#Cc1cc(=O)n(C/C=C\CO)c2nc(Nc3cccc(O)c3)ncc12)(C(C)C)C(C)C, ether bond, 13-membered ring, PPh3/DIAD, THF, 278.0 mM) 52%.

For the setting “from CC(C)[Si](C#Cc1cc(=O)[nH]c2nc(Nc3cccc(OC[C@H]4CC[C@@H](CO)C4)c3)ncc12)(C(C)C)C(C)C, other bond, 14-membered ring, PPh3/DIAD, THF, 183.0 mM”, `CC(C)[Si](C#Cc1cc(=O)n2c3nc(ncc13)Nc1cccc(c1)OC[C@H]1CC[C@H](C1)C2)(C(C)C)C(C)C` returned a ring closure, isolated yield of 26%.

Source of the values: patent publication US20260137703A1, “2-AMINO-PYRIDO[2,3-D]PYRIMIDIN-7(8H)-ONE AND 7-AMINO-1-PYRIMIDO[4,5-D]PYRIMIDIN-2(1 H)-ONE DERIVATIVES AS EGFR INHIBITORS FOR THE TREATMENT OF CANCER” (Cancer Research Technology Limited, priority 2022, published 2026).
